Laboratory results published in patent US12343326B2, “Psychoactive medicines and their use for treating psychiatric and neurological conditions and disorders” (Transcend Therapeutics, Inc., priority 2021, dated 2025).

Experiments:
Experiment in all cases: β-arrestin based GPCR screen (PathHunter / GPCRmax), agonist mode
Format in all cases: cell-based
Parameters in all cases: host or cells: PathHunter cell lines
[1] = molecular target: 168 GPCRs (Homo sapiens, UniProt O95136)
Procedure: (§1) For agonist determination, cells were incubated with sample to induce response. […] Vehicle concentration was 1%.

[2] = molecular target: 168 GPCRs (Homo sapiens, UniProt P16473); settings: TSHR(L)
Chain of 168 GPCRs (Homo sapiens, UniProt P16473) (P16473 21-764): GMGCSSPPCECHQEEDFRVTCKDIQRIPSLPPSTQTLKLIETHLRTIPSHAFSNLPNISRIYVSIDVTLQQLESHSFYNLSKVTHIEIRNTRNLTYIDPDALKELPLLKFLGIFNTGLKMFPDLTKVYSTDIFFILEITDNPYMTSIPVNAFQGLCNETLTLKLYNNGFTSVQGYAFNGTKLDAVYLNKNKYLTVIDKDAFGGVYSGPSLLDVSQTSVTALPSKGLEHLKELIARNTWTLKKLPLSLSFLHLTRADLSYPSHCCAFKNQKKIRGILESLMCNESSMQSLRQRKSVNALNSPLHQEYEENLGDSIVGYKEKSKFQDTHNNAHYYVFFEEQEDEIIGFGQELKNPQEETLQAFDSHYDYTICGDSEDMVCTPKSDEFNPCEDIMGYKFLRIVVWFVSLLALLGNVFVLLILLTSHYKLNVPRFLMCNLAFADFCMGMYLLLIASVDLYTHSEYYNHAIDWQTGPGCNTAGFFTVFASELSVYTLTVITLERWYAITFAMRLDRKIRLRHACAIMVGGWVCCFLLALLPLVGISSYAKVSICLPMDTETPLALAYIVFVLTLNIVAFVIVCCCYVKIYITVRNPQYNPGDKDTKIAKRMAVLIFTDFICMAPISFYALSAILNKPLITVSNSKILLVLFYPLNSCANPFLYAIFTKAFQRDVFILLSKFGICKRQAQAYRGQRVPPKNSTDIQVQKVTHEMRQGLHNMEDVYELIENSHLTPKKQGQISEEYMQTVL
Procedure: as §1

[3] = molecular target: 168 GPCRs (Homo sapiens, UniProt P23945); settings: FSHR
Procedure: as §1

[4] = molecular target: 168 GPCRs (Homo sapiens, UniProt P29371)
Chain of 168 GPCRs (Homo sapiens, UniProt P29371) (P29371 whole entry): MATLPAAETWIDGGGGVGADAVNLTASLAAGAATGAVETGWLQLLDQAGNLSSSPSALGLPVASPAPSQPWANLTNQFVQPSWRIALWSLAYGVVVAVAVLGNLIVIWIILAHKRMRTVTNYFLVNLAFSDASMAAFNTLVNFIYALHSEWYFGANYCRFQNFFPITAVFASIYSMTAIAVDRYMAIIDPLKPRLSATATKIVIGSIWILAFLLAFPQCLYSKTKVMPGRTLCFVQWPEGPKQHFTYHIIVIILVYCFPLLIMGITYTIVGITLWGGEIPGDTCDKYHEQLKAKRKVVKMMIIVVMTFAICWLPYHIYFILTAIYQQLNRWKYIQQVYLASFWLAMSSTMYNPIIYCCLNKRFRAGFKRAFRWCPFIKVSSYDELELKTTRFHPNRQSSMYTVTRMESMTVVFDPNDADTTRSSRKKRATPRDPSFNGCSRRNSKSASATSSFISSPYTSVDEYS
Procedure: as §1

[5] = molecular target: 168 GPCRs (Homo sapiens, UniProt P30550); settings: GRPR
Chain of 168 GPCRs (Homo sapiens, UniProt P30550) (P30550 whole entry): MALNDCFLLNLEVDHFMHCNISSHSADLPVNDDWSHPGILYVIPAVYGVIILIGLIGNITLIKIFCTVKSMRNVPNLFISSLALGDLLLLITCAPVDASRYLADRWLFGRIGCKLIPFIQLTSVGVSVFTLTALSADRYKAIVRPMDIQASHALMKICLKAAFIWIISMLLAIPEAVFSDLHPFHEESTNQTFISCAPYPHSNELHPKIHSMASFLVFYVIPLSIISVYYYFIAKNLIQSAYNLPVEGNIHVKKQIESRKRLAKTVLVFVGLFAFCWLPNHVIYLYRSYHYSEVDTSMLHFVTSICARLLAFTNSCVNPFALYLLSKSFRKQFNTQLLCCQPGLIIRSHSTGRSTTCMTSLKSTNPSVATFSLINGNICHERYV
Procedure: as §1

[6] = molecular target: 168 GPCRs (Homo sapiens, UniProt P30874)
Chain of 168 GPCRs (Homo sapiens, UniProt P30874) (P30874 whole entry): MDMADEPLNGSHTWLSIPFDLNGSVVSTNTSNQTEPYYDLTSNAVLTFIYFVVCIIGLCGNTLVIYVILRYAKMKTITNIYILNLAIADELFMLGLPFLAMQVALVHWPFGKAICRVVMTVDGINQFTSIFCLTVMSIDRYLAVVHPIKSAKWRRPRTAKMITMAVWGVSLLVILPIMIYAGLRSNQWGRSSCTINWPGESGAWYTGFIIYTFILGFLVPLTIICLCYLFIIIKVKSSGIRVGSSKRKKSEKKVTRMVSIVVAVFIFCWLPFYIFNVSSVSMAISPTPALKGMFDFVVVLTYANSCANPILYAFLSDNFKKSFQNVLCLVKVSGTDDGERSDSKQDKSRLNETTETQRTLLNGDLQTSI
Procedure: as §1

[7] = molecular target: 168 GPCRs (Homo sapiens, UniProt P35346)
Procedure: as §1

[8] = molecular target: 168 GPCRs (Homo sapiens, UniProt P35368); settings: ADRA1B, Agonist
Chain of 168 GPCRs (Homo sapiens, UniProt P35368) (P35368 whole entry): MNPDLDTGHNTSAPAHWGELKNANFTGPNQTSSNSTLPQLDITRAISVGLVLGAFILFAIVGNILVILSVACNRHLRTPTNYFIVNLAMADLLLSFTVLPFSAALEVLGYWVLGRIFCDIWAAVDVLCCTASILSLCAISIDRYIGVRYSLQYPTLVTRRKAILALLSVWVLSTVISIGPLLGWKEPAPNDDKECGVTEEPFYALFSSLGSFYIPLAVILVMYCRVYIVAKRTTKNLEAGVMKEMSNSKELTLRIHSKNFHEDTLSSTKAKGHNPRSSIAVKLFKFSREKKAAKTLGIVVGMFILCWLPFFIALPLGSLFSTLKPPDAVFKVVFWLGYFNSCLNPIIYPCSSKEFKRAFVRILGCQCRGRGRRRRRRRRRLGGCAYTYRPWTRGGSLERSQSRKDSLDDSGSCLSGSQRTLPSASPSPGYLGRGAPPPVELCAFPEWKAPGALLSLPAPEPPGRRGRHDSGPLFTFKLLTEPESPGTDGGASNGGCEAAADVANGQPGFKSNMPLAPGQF
Procedure: as §1

[9] = molecular target: 168 GPCRs (Homo sapiens, UniProt P41145)
Procedure: as §1

[10] = molecular target: 168 GPCRs (Homo sapiens, UniProt P41146)
Procedure: as §1

[11] = molecular target: 168 GPCRs (Homo sapiens, UniProt P41586); settings: ADCYAP1R1, Agonist
Chain of 168 GPCRs (Homo sapiens, UniProt P41586) (P41586 21-468): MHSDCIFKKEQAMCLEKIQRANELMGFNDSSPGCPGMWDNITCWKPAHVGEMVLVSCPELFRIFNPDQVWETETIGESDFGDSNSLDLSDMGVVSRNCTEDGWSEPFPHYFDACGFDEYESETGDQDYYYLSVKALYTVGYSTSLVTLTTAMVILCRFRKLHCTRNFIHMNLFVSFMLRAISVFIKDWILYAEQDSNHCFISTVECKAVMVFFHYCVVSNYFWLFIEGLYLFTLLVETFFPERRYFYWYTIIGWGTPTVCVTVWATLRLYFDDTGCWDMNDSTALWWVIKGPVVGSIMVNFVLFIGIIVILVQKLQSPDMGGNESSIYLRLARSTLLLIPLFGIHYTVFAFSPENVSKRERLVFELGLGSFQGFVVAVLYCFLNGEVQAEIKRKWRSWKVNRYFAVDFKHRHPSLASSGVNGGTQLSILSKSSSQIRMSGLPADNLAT
Procedure: as §1

[12] = molecular target: 168 GPCRs (Homo sapiens, UniProt P43220); settings: GLP1R
Procedure: as §1

[13] = molecular target: 168 GPCRs (Homo sapiens, UniProt P46092); settings: CCR10, Agonist
Procedure: as §1

[14] = molecular target: 168 GPCRs (Homo sapiens, UniProt P47900)
Chain of 168 GPCRs (Homo sapiens, UniProt P47900) (P47900 whole entry): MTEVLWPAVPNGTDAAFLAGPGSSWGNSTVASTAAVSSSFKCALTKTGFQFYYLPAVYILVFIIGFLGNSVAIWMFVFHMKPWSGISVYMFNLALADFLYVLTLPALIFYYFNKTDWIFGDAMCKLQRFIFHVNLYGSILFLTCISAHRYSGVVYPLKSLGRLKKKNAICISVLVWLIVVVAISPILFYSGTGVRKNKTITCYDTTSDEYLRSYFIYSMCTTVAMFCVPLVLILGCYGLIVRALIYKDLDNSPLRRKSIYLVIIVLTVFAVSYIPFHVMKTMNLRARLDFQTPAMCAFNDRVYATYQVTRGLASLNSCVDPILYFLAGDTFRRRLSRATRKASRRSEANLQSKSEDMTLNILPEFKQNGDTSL
Procedure: as §1

[15] = molecular target: 168 GPCRs (Homo sapiens, UniProt P48039); settings: MTNR1A
Chain of 168 GPCRs (Homo sapiens, UniProt P48039) (P48039 whole entry): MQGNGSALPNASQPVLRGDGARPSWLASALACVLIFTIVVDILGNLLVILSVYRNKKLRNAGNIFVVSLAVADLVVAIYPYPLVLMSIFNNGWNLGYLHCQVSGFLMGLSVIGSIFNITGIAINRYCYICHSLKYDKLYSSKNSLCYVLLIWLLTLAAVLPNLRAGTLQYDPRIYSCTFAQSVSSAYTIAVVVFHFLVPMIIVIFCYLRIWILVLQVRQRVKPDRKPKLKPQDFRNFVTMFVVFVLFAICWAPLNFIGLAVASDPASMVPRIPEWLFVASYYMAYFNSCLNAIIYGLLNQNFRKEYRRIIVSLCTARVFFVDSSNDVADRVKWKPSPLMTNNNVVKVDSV
Procedure: as §1

[16] = molecular target: 168 GPCRs (Homo sapiens, UniProt P50391)
Procedure: as §1

[17] = molecular target: 168 GPCRs (Homo sapiens, UniProt P51677); settings: CCR3, Agonist
Procedure: as §1

[18] = molecular target: 168 GPCRs (Homo sapiens, UniProt P51686); settings: CCR9, Agonist
Chain of 168 GPCRs (Homo sapiens, UniProt P51686) (P51686 whole entry): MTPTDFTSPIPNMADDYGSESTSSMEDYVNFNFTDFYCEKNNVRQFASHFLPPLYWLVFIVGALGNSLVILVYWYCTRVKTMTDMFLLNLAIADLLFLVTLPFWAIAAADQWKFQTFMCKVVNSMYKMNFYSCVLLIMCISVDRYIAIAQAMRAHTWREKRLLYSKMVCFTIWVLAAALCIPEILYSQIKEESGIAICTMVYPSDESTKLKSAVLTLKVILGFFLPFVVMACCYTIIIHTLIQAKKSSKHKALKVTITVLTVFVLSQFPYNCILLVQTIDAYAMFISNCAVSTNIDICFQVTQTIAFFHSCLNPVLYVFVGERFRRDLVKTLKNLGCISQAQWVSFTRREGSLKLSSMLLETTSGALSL
Procedure: as §1

[19] = molecular target: 168 GPCRs (Homo sapiens, UniProt Q03431)
Procedure: as §1

[20] = molecular target: 168 GPCRs (Homo sapiens, UniProt Q15722); settings: LTB4R
Chain of 168 GPCRs (Homo sapiens, UniProt Q15722) (Q15722 whole entry): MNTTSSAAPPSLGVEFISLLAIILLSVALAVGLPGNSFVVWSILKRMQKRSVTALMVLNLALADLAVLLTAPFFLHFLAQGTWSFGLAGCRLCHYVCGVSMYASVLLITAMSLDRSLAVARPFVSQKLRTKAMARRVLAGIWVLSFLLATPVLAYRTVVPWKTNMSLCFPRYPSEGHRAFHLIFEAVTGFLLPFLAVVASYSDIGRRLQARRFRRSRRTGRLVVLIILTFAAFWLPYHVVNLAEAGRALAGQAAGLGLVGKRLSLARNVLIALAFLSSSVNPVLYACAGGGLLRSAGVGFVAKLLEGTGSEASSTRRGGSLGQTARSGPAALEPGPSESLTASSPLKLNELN
Procedure: as §1

[21] = molecular target: 168 GPCRs (Homo sapiens, UniProt Q96LB2)
Procedure: as §1

[22] = molecular target: 168 GPCRs (Homo sapiens, UniProt Q99705)
Procedure: as §1

[23] = molecular target: 168 GPCRs (Homo sapiens, UniProt Q9H3N8)
Procedure: as §1

Chain of 168 GPCRs (Homo sapiens, UniProt O95136) (O95136 whole entry): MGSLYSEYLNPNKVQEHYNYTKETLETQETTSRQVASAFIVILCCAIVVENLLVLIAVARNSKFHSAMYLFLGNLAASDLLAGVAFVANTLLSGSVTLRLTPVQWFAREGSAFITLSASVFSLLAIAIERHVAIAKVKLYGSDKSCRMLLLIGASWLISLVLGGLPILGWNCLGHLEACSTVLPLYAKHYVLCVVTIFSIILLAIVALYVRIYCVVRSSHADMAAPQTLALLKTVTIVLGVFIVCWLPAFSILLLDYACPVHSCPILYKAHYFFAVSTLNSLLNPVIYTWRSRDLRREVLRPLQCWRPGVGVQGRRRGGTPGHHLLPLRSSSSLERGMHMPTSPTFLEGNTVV

CNC(C)C(=O)c1ccc2c(c1)OCO2 (stereo not shown) [methylone, 3,4-methylenedioxy-N-methylcathinone]
activity at 10 µM ([1]; EDG5, Agonist mode, 10 uM): 3.7%
activity at 1 µM ([1]; EDG5, Agonist, 1 uM): -4.7%
activity at 10 µM ([2]; Agonist mode, 10 uM): 0.7%
activity at 1 µM ([2]; Agonist, 1 uM): -1.2%
activity at 10 µM ([3]; Agonist mode, 10 uM): 2.2%
activity at 1 µM ([3]; Agonist, 1 uM): -1%
activity at 10 µM ([4]; TACR3, Agonist mode, 10 uM): 1.1%
activity at 1 µM ([4]; TACR3, Agonist, 1 uM): 0.8%
activity at 10 µM ([5]; Agonist mode, 10 uM): -0.1%
activity at 1 µM ([5]; Agonist, 1 uM): 0%
activity at 10 µM ([6]; SSTR2, Agonist mode, 10 uM): 0.7%
activity at 1 µM ([6]; SSTR2, Agonist, 1 uM): 0%
activity at 10 µM ([7]; SSTR5, Agonist mode, 10 uM): -1.3%
activity at 1 µM ([7]; SSTR5, Agonist, 1 uM): -2.4%
activity at 1 µM ([8]; 1 uM): -3.3%
activity at 10 µM ([8]; 10 uM): -2.9%
activity at 10 µM ([9]; OPRK1, Agonist mode, 10 uM): -4.1%
activity at 1 µM ([9]; OPRK1, Agonist, 1 uM): -6.3%
activity at 10 µM ([10]; OPRL1, Agonist mode, 10 uM): -2.3%
activity at 1 µM ([10]; OPRL1, Agonist, 1 uM): -1.6%
activity at 1 µM ([11]; 1 uM): -4%
activity at 10 µM ([11]; 10 uM): -3%
activity at 10 µM ([12]; Agonist mode, 10 uM): -0.1%
activity at 1 µM ([12]; Agonist, 1 uM): -0.3%
activity at 1 µM ([13]; 1 uM): -2%
activity at 10 µM ([13]; 10 uM): -1.8%
activity at 10 µM ([14]; P2RY1, Agonist mode, 10 uM): -4.1%
activity at 1 µM ([14]; P2RY1, Agonist, 1 uM): 2.2%
activity at 10 µM ([15]; Agonist mode, 10 uM): -11.7%
activity at 1 µM ([15]; Agonist, 1 uM): -12.3%
activity at 10 µM ([16]; PPYR1, Agonist mode, 10 uM): -1.2%
activity at 1 µM ([16]; PPYR1, Agonist, 1 uM): -1.7%
activity at 1 µM ([17]; 1 uM): -6.7%
activity at 10 µM ([17]; 10 uM): -7.6%
activity at 1 µM ([18]; 1 uM): -0.5%
activity at 10 µM ([18]; 10 uM): 0.2%
activity at 10 µM ([19]; PTHR1, Agonist mode, 10 uM): 0.1%
activity at 1 µM ([19]; PTHR1, Agonist, 1 uM): 0%
activity at 10 µM ([20]; Agonist mode, 10 uM): -0.8%
activity at 1 µM ([20]; Agonist, 1 uM): -0.3%
activity at 10 µM ([21]; MRGPRX1, Agonist mode, 10 uM): -1.5%
activity at 1 µM ([21]; MRGPRX1, Agonist, 1 uM): -1.7%
activity at 10 µM ([22]; MCHR1, Agonist mode, 10 uM): 3.1%
activity at 1 µM ([22]; MCHR1, Agonist, 1 uM): 3.9%
activity at 1 µM ([23]; HRH4, Agonist, 1 uM): 8.6%
activity at 10 µM ([23]; IHRH4, Agonist mode, 10 uM): 9%
